Consider 11 compounds from ChEMBL document CHEMBL2346658, “8,8-dialkyldihydroberberines with potent antiprotozoal activity” (J Nat Prod, 2013).

For data set [1], the system named is Leishmania donovani. Description: Antileishmanial activity against Leishmania donovani. The class given is functional, organism-based.
Data set [2] concerns Trypanosoma brucei brucei. The data set is described as follows: Antitrypanosomal activity against Trypanosoma brucei brucei blood-stream forms. The class given is functional, organism-based.
A short description of data set [3]: Selectivity index, ratio of IC50 for african green monkey Vero cells to IC50 for Trypanosoma brucei brucei blood-stream forms. Particulars: read-out: Ratio IC50. The class given is toxicity, cell-based.
The test system of the next data set is Plasmodium falciparum. The data set is described as follows: Antimalarial activity against erythrocyte stage Plasmodium falciparum 3D7. The format is functional, organism-based.
The nature of data set [4]: Selectivity index, ratio of IC50 for african green monkey Vero cells to IC50 for Leishmania donovani. The class given is toxicity, cell-based. The note with it: read-out: Ratio IC50.
A short description of data set [5]: Binding affinity to poly(dA.dT) DNA (unknown origin) assessed as change in melting temperature.
The subject of data set [6] is Trypanosoma brucei rhodesiense. Description: Antitrypanosomal activity against Trypanosoma brucei rhodesiense STIB900 infected in NMRI mouse assessed as infection cure rate at 1 mg/kg/day for 4 days starting from 3 to 6 days post-infection measured on day 7. The format is functional, organism-based.
A short description of data set [7]: Selectivity index, ratio of IC50 for african green monkey Vero cells to IC50 for erythrocyte stage Plasmodium falciparum 3D7. The format is toxicity, cell-based. Particulars: read-out: Ratio IC50.
Data set [8] has as its system Trypanosoma brucei rhodesiense. The data set is described as follows: Antitrypanosomal activity against Trypanosoma brucei rhodesiense STIB900 infected in NMRI mouse assessed as infection cure rate at 1 mg/kg/day for 4 days starting from 3 to 6 days post-infection measured on day 10. The class given is functional, organism-based.
The subject of the next data set is Vero. Description: Cytotoxicity against african green monkey Vero cells. The class given is cell-based. Particulars: Chlorocebus sabaeus.
In data set [9] the test system is Leishmania donovani. Description: Potency index, ratio of IC50 for chloroquine to IC50 for compound against Leishmania donovani. The class given is functional.
Data set [10] concerns Leishmania donovani. Description: Antileishmanial activity against Leishmania donovani LV82 infected in BALB/c mouse model of visceral leishmaniasis assessed as inhibition of liver parasitemia at 10 mg/kg/day, ip for 5 days starting 7 days post-infection. The class given is functional. The note with it: route intraperitoneal.
The test system of data set [11] is Trypanosoma brucei rhodesiense. The data set is described as follows: Antitrypanosomal activity against Trypanosoma brucei rhodesiense STIB900 infected in NMRI mouse assessed as infection cure rate at 10 mg/kg/day for 4 days starting from 3 to 6 days post-infection measured on day 10. The format is functional, organism-based.
The test system of data set [12] is Trypanosoma brucei rhodesiense. Description: Antitrypanosomal activity against Trypanosoma brucei rhodesiense STIB900 infected in NMRI mouse assessed as infection cure rate at 10 mg/kg/day for 4 days starting from 3 to 6 days post-infection measured on day 7. The class given is functional, organism-based.
For a further data set, the system named is Mus musculus. The data set is described as follows: Toxicity in BALB/c mouse assessed as induction of overt toxicity at 10 mg/kg/day, ip for 5 days. The format is organism-based. Also on record: route intraperitoneal. The note with it: in vivo, 120 h.

Structures can show the parent of a compound that is named as a salt. Activity calls are given as the source filed them. The rule behind the calls is not given here. Some results are limits rather than exact numbers.

For `CCC1(CC)c2c(ccc(OC)c2OC)C(=O)c2c3cc4c(cc3cc[n+]21)OCO4.[Cl-]`, the half-maximal inhibitory concentration (IC50) came to 290 nM in the data set on Leishmania donovani [1], 2 nM in [2], 20 nM in the data set on Plasmodium falciparum and 39000 nM with Vero. The selectivity ratio is 3000 in data set [3], above 100 in [4] and above 600 in [7]. The ΔTm in data set [5] worked out at 0.5 °C. The outcome in [6] was Active. For the same compound, in data set [8], the result was inactive. Further, in the data set with Leishmania donovani [9], the “Ratio IC50” value was found to be 4.
As to `CCC1(CC)c2c(ccc(OC)c2OC)CC2c3cc4c(cc3CCN21)OCO4` (stereo unspecified) [8,8-DIETHYLCANADINE], the concentration for half-maximal inhibition (IC50) was 8900 nM with Leishmania donovani [1], 230 nM in data set [2] and 1700 nM in the data set on Plasmodium falciparum.
Turning to `COc1ccc2c(c1OC)C(C)(C)N1CCc3cc4c(cc3C1C2)OCO4` (stereo unspecified) [8,8-DIMETHYLCANADINE], the IC50 in the data set on Leishmania donovani [1] was determined as 7300 nM; in [2], 52000 nM; with Plasmodium falciparum, 7300 nM.
With `CCC1(CC)c2c(ccc(OC)c2OC)CC2=[N+]1CCc1cc3c(cc12)OCO3.[Cl-]` [8,8-Diethyldihydroberberine], the IC50 in the data set on Leishmania donovani [1] was 100 nM; in data set [2], 5.3 nM; in the data set with Plasmodium falciparum, 77 nM; in the data set on Vero, 18000 nM. The selectivity ratio was 3000 in data set [3] and above 100 in [4]. Moreover, the inhibition in vivo at 10 mg/kg/day in the data set on Leishmania donovani [10] turned out to be 29%. Besides, in [5], the ΔTm was found to be 0.5 °C. In addition, the outcome in data set [11] was inactive. In data set [12], the outcome was Active. Further, in the data set on Mus musculus, the Activity entry is given as “Non-toxic”.
For the compound `CCCC1(CCC)c2c(ccc(OC)c2OC)CC2=[N+]1CCc1cc3c(cc12)OCO3.[Cl-]` [8,8-Dipropyldihydroberberine], the IC50 in the data set on Leishmania donovani [1] was found to be 550 nM; in data set [2] it was 53 nM; in the data set on Plasmodium falciparum, 30 nM; in the data set with Vero, 19000 nM. Besides, the inhibition in vivo at 10 mg/kg/day in the data set on Leishmania donovani [10] came out at 32%. Also, the shift in melting temperature (ΔTm) in [5] worked out at 0 °C. Moreover, in data set [7], the selectivity ratio is above 600. In addition, in the data set with Mus musculus, the Activity entry is reported as “Non-toxic”. The “Ratio IC50” value with Leishmania donovani [9] turned out to be 4.
Take `COc1ccc2c(c1OC)C(C)(C)[N+]1=C(C2)c2cc3c(cc2CC1)OCO3.[Cl-]` [8,8-dimethyldihydroberberine]: the concentration for half-maximal inhibition (IC50) worked out at 200 nM with Leishmania donovani [1], 4600 nM in [2], 63 nM with Plasmodium falciparum and 8800 nM in the data set on Vero. Moreover, in the data set with Leishmania donovani [10], the inhibition in vivo at 10 mg/kg/day stood at 46%. The ΔTm in data set [5] is 0.3 °C. In the data set with Mus musculus, the Activity result was “Non-toxic”.
Turning to `C[C@@H]1[C@H](O)[C@@H](C)/C=C/C=C/C=C/C=C/C=C/C=C/C=C/[C@H](O[C@@H]2O[C@H](C)[C@@H](O)[C@H](N)[C@@H]2O)C[C@@H]2O[C@](O)(C[C@@H](O)C[C@@H](O)[C@H](O)CC[C@@H](O)C[C@@H](O)CC(=O)O[C@H]1C)C[C@H](O)[C@H]2C(=O)O` [AMPHOTERICIN B], in the data set with Leishmania donovani [1], the concentration for half-maximal inhibition (IC50) amounted to 46 nM.
Regarding `COc1ccc2cc3[n+](cc2c1OC)CCc1cc2c(cc1-3)OCO2` [BERBERINE SULFATE], the half-maximal inhibitory concentration (IC50) in the data set on Leishmania donovani [1] was 17000 nM; with Vero, above 200000 nM. The thermal shift (ΔTm) in [5] was 3.5 °C.
Turning to `CCCCCCCCCCCCCCCCOP(=O)([O-])OCC[N+](C)(C)C` [MILTEFOSINE], the inhibition in vivo at 10 mg/kg/day with Leishmania donovani [10] came out at 97%.
As for `COc1cc([C@@H]2c3cc4c(cc3[C@H](O)[C@H]3COC(=O)[C@H]23)OCO4)cc(OC)c1OC` [PODOFILOX], half-maximal inhibition in the data set on Vero (IC50) was put at 17 nM.
As for `Cc1ccc(C(=O)Nc2ccc(S(=O)(=O)O)c3cc(S(=O)(=O)O)cc(S(=O)(=O)O)c23)cc1NC(=O)c1cccc(NC(=O)Nc2cccc(C(=O)Nc3cc(C(=O)Nc4ccc(S(=O)(=O)O)c5cc(S(=O)(=O)O)cc(S(=O)(=O)O)c45)ccc3C)c2)c1` [SURAMIN], inhibition in data set [2] was half-maximal at 130 nM (IC50).
